Where a name gives a salt, the structure may show the parent alone.

Results on 18 compounds are retold here after patent US4185116A, “L- and DL- Phenylglycines to treat diseases or conditions attributable to reduced carbohydrate metabolism” (priority 1976, dated 1980).

Data set [1] relates to pyruvate oxidation by diaphragm tissue from fat-fed rats. Put plainly: Pyruvate oxidation by diaphragm tissue from fat-fed rats (14C-pyruvate into CO2, in vitro). Type of data set: cell-based, rat. The following applies: for activation at 500 µM: concentration of 0.5 mM, read-out: % Stimulation (of pyruvate oxidation). How it is done: The compounds of formula (I) were tested for their ability to increase pyruvate oxidation as follows:
Diaphragm tissue is obtained from rats fed on a high fat diet similar to "Diet B" described by Zaragoza and Felber, Horm, Metab. Res., 2, 323 (1970). Pyruvate oxidation by such tissue is assessed by measurement of the rate of incorporation of carbon-14 from carbon-14-labelled pyruvate into carbon dioxide in vitro, as described by Bringolf, Eur. Jour. Biochem., 26, 360 (1972). The rate of pyruvate oxidation is depressed by 50-75% compared with that by diaphragm tissue from rats fed on a normal diet. […] The threshold concentration for such stimulation is about 0.25 millimolar and maximum stimulation of 170% is achieved at concentrations of 4 millimolar and above.

For data set [2], the system named is pyruvate dehydrogenase enzyme. In words: Proportion of active pyruvate dehydrogenase (PDHa/PDHt) in hearts of fat-fed rats after treatment in vivo. Also on record: species or system rat. The following applies: heart; for PDHa/PDHt Ratio, Compound: 0.6 millimoles/kg. How it is done: The total amount of the enzyme present (PDHt) and the amount which is present in the active form (PDHa) are assessed by a method similar to that described by Taylor et al., Jour. […] The fat-feeding process is found to depress the ratio PDHa/PDHt from a normal value of about 0.7 to a value in the range from 0.05 to 0.2. Treatment of fat-fed rats with L(+)-2-(4-hydroxyphenyl)glycine, either parenterally or orally, increases this ratio in a dose-dependent manner, the threshold doses for this effect being 0.05 millimole/kg. by intravenous injection and in the range 0.1 to 0.2 millimole/kg. by subcutaneous injection or by oral administration. The ratio is increased to a value in the range 0.8-1.0 (i.e., above that for rats on normal diet) by doses of 0.6 millimole/kg. and above.
The increase in the PDHa/PDHt ratio effected by other compounds of formula (I) at a dose level of 0.6 millimoles/kg. is shown in the following Table: […]

Data set [3] has as its system glucose oxidation by isolated hearts from starved rats. In words: Glucose oxidation by isolated perfused hearts from starved rats (14C-glucose into CO2). Type of data set: cell-based. The following applies: isolated starved-rat heart. How it is done:
The rate of glucose oxidation by isolated hearts from starved rats is measured in a recirculating oxygenated perfusion system, by measuring the rate of incorporation of carbon-14 from carbon-14-labelled glucose into carbon dioxide using a method similar to those described by Morgan et al., Jour. […] The perfusate contains glucose, palmitate, insulin and bovine serum albumen.

Data set [4] has as its system heart of anesthetized beagle dogs. In words: Myocardial blood flow and metabolism in fasted, closed-chest, anesthetized, electrically paced beagle dogs. The class given is in vivo, dog. How it is done:
The ability of compounds of formula (I) to reduce oxygen demand and affect the relative utilization of carbohydrate and lipid metabolites in the heart has been assessed by measuring the effect of the compounds on myocardial blood flow and metabolism in fasted, closed-chest, anesthetized beagle dogs, with cardiac catherization to enable simultaneous sampling of coronary sinus and arterial blood to be carried out. Coronary sinus blood flow is measured by the hydrogen gas clearance technique described by Aukland et al., Circulation Res., 14, 164 (1964). The heart is paced electrically at 155 beats/min. and recordings of hemodynamic parameters (blood pressure, left ventricular pressure and the first derivative of the latter) are made continuously. Control measurements of coronary blood flow are made and samples of blood taken at 40 minute intervals, both in an untreated animal and in the same animal dosed with an infusion of isoprenaline ([…].), which both stimulates cardiac contraction and increases plasma free fatty acid levels. The compound of formula (I) is then administered intravenously and measurements are made and samples taken again, 40 minutes and 90 minutes later. The blood samples from the artery and coronary sinus are analyzed for oxyhemoglobin, pyruvate and free fatty acid (FFA) content, differences between those of the arterial and coronary sinus blood, when multiplied by coronary blood flow, being a measure of oxygen consumption, pyruvate uptake and FFA uptake by the myocardium respectively.

Data set [5] deals with rats in which diabetes has been induced by treatment with streptozotocin. Put plainly: Blood glucose levels in streptozotocin-diabetic rats. Type of data set: in vivo, rat. How it is done:
The ability of compounds of formula (I) to decrease blood glucose levels has been assessed by measuring their effect on blood glucose levels in rats in which diabetes has been induced by treatment with streptozotocin (85 mg/kg.). Four days after such treatment, a number of rats are given 1 millimole/kg of the compound by intraperitoneal injection and a similar number are given placebo. The doses are repeated after a further 24 hours and 48 hours. Blood samples are taken from a tail vein immediately before each dosage (which is 2 hours after removal of the animals from food) and 1, 2 and 3 hours after the third dose.

Setting [6] is: 0.02 to 0.1 millimole/kg. intravenously.

With `NC(C(=O)O)c1ccc(O)cc1` (racemic) [DL (racemic)-2-(4-hydroxyphenyl)glycine], the “effect on pyruvate oxidation relative to the L(+)-isomer” value in data set [1] is recorded as “approximately half that of the L(+)-isomer”. In addition, in data set [2] (same dose levels), the “effect on PDHa/PDHt ratio relative to the L(+)-isomer” value is “only half, or less than half, the effect of the L(+)-isomer”.
Take `NC(C(=O)[O-])c1ccc(O)cc1.[Na+]` (racemic) [DL-2-(4-hydroxyphenyl)glycine, sodium salt]: the “effect on rate of glucose oxidation (predicted, 'will be')” value (“effect on rate … (predicted, 'will be')” below) in data set [3] is “significantly increased”.
Regarding `CC(C)CCOC(=O)[C@@H](N)c1ccc(O)cc1` [3-Methylbutyl L(+)-2-(4-hydroxyphenyl)glycinate], in data set [1] (Rattus norvegicus), the activation at 500 µM amounted to 32%. For the same compound, in data set [2] (s.c. (subcutaneous)), the “PDHa/PDHt Ratio, Compound” value is 0.51. The “effects on myocardial pyruvate uptake, blood flow, oxygen consumption and FFA uptake (predicted, 'will be found')” value (“effects … (predicted, 'will be found')” for short) in data set [4] is recorded as “effects similar to L(+)-2-(4-hydroxyphenyl)glycine”.
Consider `Br.COc1ccc([C@H](N)C(=O)OCCC(C)C)cc1` [3-methylbutyl L(+)-2-(4-methoxyphenyl)glycinate hydrobromide], for which the “effect on PDHa/PDHt ratio (predicted, 'will be')” value in data set [2] is given as “significantly increased”.
Regarding `N[C@@H](C(=O)O)c1ccc(O)cc1` [D(-)-2-(4-hydroxyphenyl)glycine, reference compound], the “effect on pyruvate oxidation” value in data set [1] (concentrations up to 4 mM) is reported as “no significant effect”. Moreover, the “effect on rate of glucose oxidation” value in data set [3] (2 millimolar in perfusate) was “no significant effect”. Besides, in data set [2] (dose levels up to 1.2 millimole/kg.), the “effect on PDHa/PDHt ratio” value is “very little effect”.
Consider `CC(C)OC(=O)[C@@H](N)c1ccc(O)cc1` [Isopropyl L(+)-2-(4-hydroxyphenyl)glycinate], for which the activation at 500 µM in data set [1] (Rattus norvegicus) was 34%.
For `NC(=O)[C@@H](N)c1ccc(O)cc1` [L(+)-2-(4-hydroxyphenyl)glycinamide], in data set [1] (Rattus norvegicus), the activation at 500 µM turned out to be 51%. Besides, the “effect on rate … (predicted, 'will be')” value in data set [3] was “significantly increased”. For the same compound, the “PDHa/PDHt Ratio, Compound” value in data set [2] (p.o. (oral)) is 0.91; in data set [2] (s.c. (subcutaneous)), 0.93. The “effects … (predicted, 'will be found')” value in data set [4] is reported as “effects similar to L(+)-2-(4-hydroxyphenyl)glycine”.
On to `N[C@H](C(=O)O)c1ccc(O)cc1` [L(+)-2-(4-hydroxyphenyl)glycine], for which, in data set [1] (Rattus norvegicus, at concentrations of 4 millimolar and above, read-out: maximum stimulation of pyruvate oxidation), the Emax amounted to 170%. Besides, the minimal effective concentration in data set [1] (Rattus norvegicus, in vitro, read-out: threshold concentration for stimulation of pyruvate oxidation) is approximately 250 µM. The compound also gave a rate of glucose oxidation in data set [3] (2 millimolar in perfusate, normal rate 1.27+ 0.32, mean of 9 observations) of 4.77 µmol/h. For the same compound, the PDHa/PDHt ratio in data set [2] (doses of 0.6 millimole/kg. and above, fat-fed untreated 0.05 to 0.2, normal diet about 0.7) is reported as 0.8-1.0. Moreover, the “threshold dose for increase of PDHa/PDHt ratio” value in data set [2] (intravenous injection) is reported as 0.05 millimole/kg. In data set [4] (setting [6]), the “effect on hemodynamic parameters (blood pressure, left ventricular pressure and its first derivative)” value was “no effect”; the “effect on myocardial FFA uptake” value is on record as “generally decreased”; the “increase of myocardial blood flow” value was “up to 150%”; the “period of increased myocardial pyruvate uptake after dosing” value was “at least 90 minutes”. The “decrease of myocardial oxygen consumption” value in data set [4] (0.02 to 0.1 millimole/kg. intravenously, in the presence of isoprenaline) is reported as “about 20%”. Besides, in data set [4] (0.02 to 0.1 millimole/kg. intravenously, presence and absence of isoprenaline), the “increase of myocardial pyruvate uptake” value is listed as “at least 2 fold”. Further, in data set [5] (1 millimole/kg intraperitoneal daily, declined from 378± 8, placebo 383± 10, averages for 8 animals), the “blood glucose level after 2 days of treatment (immediately before the third dose)” value amounted to 356± 4 mg/100 ml. In data set [5] (1 millimole/kg intraperitoneal, placebo 385± 7, averages for 8 animals), the “blood glucose level 2 hours after the third dose (minimum value)” value was 313± 7 mg/100 ml.
In the case of `COc1ccc([C@H](N)C(N)=O)cc1` [L(+)-2-(4-methoxyphenyl)glycinamide], the “effect on pyruvate oxidation (predicted, 'will be found')” value in data set [1] is listed as “stimulate pyruvate oxidation”. Moreover, the “effect on PDHa/PDHt ratio (predicted, 'will be')” value in data set [2] is reported as “significantly increased”.
Turning to `COc1ccc([C@H](N)C(=O)O)cc1` [L(+)-2-(4-methoxyphenyl)glycine, calcium salt], the “effects … (predicted, 'will be found')” value in data set [4] is “effects similar to L(+)-2-(4-hydroxyphenyl)glycine”.
As to `COc1ccc([C@H](N)C(=O)[O-])cc1.[K+]` [L(+)-2-(4-methoxyphenyl)glycine, potassium salt], the “effect on PDHa/PDHt ratio (predicted, 'will be')” value in data set [2] is recorded as “significantly increased”.
For the compound `COc1ccc([C@H](N)C(=O)O)cc1` [L(+)-2-(4-methoxyphenyl)glycine], the activation at 500 µM in data set [1] (Rattus norvegicus) turned out to be 79%. The “effect on rate … (predicted, 'will be')” value in data set [3] is on record as “significantly increased”.
Regarding `COC(=O)[C@@H](N)c1ccc(O)cc1` [Methyl L(+)-2-(4-hydroxyphenyl)glycinate], in data set [1] (Rattus norvegicus), the activation at 500 µM was 89%. Also, the entries for the “PDHa/PDHt Ratio, Compound” value in data set [2] (p.o. (oral)) and in data set [2] (s.c. (subcutaneous)) were 0.42 and 0.69, respectively.
`CCOC(=O)[C@@H](N)c1ccc(OC)cc1` [ethyl L(+)-2-(4-methoxyphenyl)glycinate]: the “effect on pyruvate oxidation (predicted, 'will be found')” value in data set [1] is reported as “stimulate pyruvate oxidation”.
For the compound `COC(=O)[C@@H](N)c1ccc(O)cc1.Cl` [methyl L(+)-2-(4-hydroxyphenyl)glycinate hydrochloride], the “effects … (predicted, 'will be found')” value in data set [4] is given as “effects similar to L(+)-2-(4-hydroxyphenyl)glycine”.
As to `COC(=O)[C@@H](N)c1ccc(OC)cc1` [methyl L(+)-2-(4-methoxyphenyl)glycinate gluconate], the “effect on PDHa/PDHt ratio (predicted, 'will be')” value in data set [2] was “significantly increased”.
`CCCCOC(=O)[C@@H](N)c1ccc(OC)cc1` [n-butyl L(+)-2-(4-methoxyphenyl)glycinate]: the “effect on pyruvate oxidation (predicted, 'will be found')” value in data set [1] is “stimulate pyruvate oxidation”.
With `CCCOC(=O)[C@@H](N)c1ccc(O)cc1.Cl` [n-propyl L(+)-2-(4-hydroxyphenyl)glycinate hydrochloride], the “effect on rate … (predicted, 'will be')” value in data set [3] was “significantly increased”.
